US7723301B2, “Pharmaceutical compositions comprising an anti-teratogenic compound and applications of the same” (The Board of Trustees of the University of Arkansas, priority 2007, dated 2010)

Experiments:
chicken embryos = test: Inhibitors counteracting thalidomide-induced limb truncations and microphthalmia in chicken embryos; assay type: in vivo
Experimental: Fertilized eggs were purchased from Deindl GmbH, Rietberg-Varensell. They were incubated at 38° C. in a humidified incubator, windowed after one day and staged according to Hamburger and Hamilton (HH stage). Racemic thalidomide (Celgene), thalidomide enantiomers or phthalimide (Sigma) were dissolved in DMSO at 5 mg/ml and further diluted in PBS. Embryos were exposed to drugs by dropping 15 μg-3 mg thalidomide or phthalimide per kg egg weight (about 1-200 μg per embryo) in 50 μl DMSO/PBS as a single dose at HH stages 0-13 onto the embryo. Thalidomide (50 μg) or phthalimide (50 μg) in 10 μl DMSO was injected into the extra-embryonic blood vessels of HH 19 stage embryos. LiCl (99% pure, Sigma) was dissolved in sterile PBS. LiCl (0.1, 0.6 or 3.2 mg) was applied at HH stages 17-19 by dropping 500 μl of a 5 mM, 28 mM or 151 mM LiCl solution onto the embryo. Recombinant Noggin, Dkk1 specific goat IgG (R&D Systems) or serum of non-immunized goats (Sigma) was dissolved in 0.1% BSA/0.01% Fast Green/PBS. Noggin (10 or 100 ng), Dkk1 specific goat IgG (5 or 50 ng) or serum of non-immunized goats (50 ng) was applied to a single embryo at HH stages 17-19 by injecting a 10 μl solution through the extra-embryonic membranes.
The morphology of the limbs was studied in specimens fixed in 5% trichloroacetic acid and stained for cartilage with alcian green as described (3).

[1] = test system: Dkk1 and Bmp expression in limb buds; test: sqRT-PCR and whole mount in situ hybridization of Dkk1 and Bmp expression in limb buds; assay type: in vivo, chicken
Experimental: (§1) RNA isolation, semi-quantitative RT-PCRs and whole mount in situ hybridizations were performed according to standard protocols that are well known within the art. RNA was isolated using TRIZOL (Gibco BRL) followed by DNAseI digestion. First strand synthesis was carried out with the Expand RT System (Roche) according to the manufacturer's instructions. PCR amplification was carried out primers and conditions within the knowledge of a person having skill in the relevant art. Quantifications were performed using NIH Image 1.62.

[2] = test system: limb buds of HH stages 23/24 chicken embryos; test: Whole mount TUNEL staining of limb buds; assay type: in vivo
Experimental: TUNEL staining was performed as described (7).

[3] = test system: primary limb bud cells (PLBCs); test: Cell death by trypan blue staining in PLBCs; assay type: cell-based, chicken
Experimental: (§2) Primary limb bud cells (PLBCs) were isolated from 60 pooled wing and hindlimb buds of HH stages 23/24 embryos. Fibroblasts were gained from HH stage 34 chicken embryos or from 13.5 d.p.c. mouse embryos. Human embryonic fibroblasts were provided by Matthias Maass (2). Before adding reagents, all cell types were cultured for 16 hours in D-MEM (Gibco) plus 10% fetal calf serum (FCS) and 2% chicken serum. Treatment with thalidomide, phthalimide, recombinant human (rh) BMP4 (300 ng/ml; R&D Systems), juglone (5 μM; Sigma), recombinant mouse Noggin (30, 300, 1000 ng/ml in FIG. 4B; 300 ng/ml in FIGS. 4C and 6A), anti-human-DKK1 antibody (35, 350 and 1000 ng/ml in FIG. 4B; 350 ng/ml in FIGS. 4C and 6A), LiCl (3, 30, 60 mM in FIG. 4B; 30 mM in FIGS. 4C, 6A and 6C) and/or (2Z,3E)-6-Bromoindirubin-3-oxime (BIO, Gsk3-Inhibitor IX; 50, 500, 1000 nM in FIG. 4B; 500 nM in FIG. 6A; 50 and 500 nM in FIG. 6C; Calbiochem) were performed in Optimem1 (Invitrogen) plus 1% FCS. Unless otherwise noted, all treatments with thalidomide and rh-BMP4 and associated controls were done for six hours. Inhibitors were applied once at the beginning of incubation with the exception of LiCl that was added 150 minutes before harvesting the cells for further analyses. Pre-treatment with phenyl-N-t-butylnitrone (PBN; 2 mM; Sigma) was performed for one hour. Incubations with juglone were performed for two hours, if applicable, after a pre-treatment with PBN, Noggin, anti-Dkk1 antibody, LiCl or Gsk3-Inhibitor IX for one hour.
(§3) Cell death in PLBCs, CEFs, MEFs and HEFs was detected by staining with trypan blue (0.1% (w/v) in PBS; Sigma) for 90 seconds. Cells were counted in a counting chamber to determine the ratio of dead to live cells.

[4] = test system: primary chicken embryonic fibroblasts (CEFs); test: Cell death by trypan blue staining in CEFs; assay type: cell-based; details: 38.7 μM (10 μg/ml), six hours
Experimental: as §2, §3

[5] = test system: human embryonic fibroblasts (HEFs); test: Cell death by trypan blue staining in HEFs; assay type: cell-based
Experimental: as §2, §3

[6] = test system: Bmp4 and Dkk1 expression in PLBCs; test: sqRT-PCR of Bmp4 and Dkk1 expression in PLBCs; assay type: cell-based, chicken; details: 10 μg/ml, six hours
Experimental: as §2, §1

[7] = test system: Bmp4 and Dkk1 expression in HEFs; test: sqRT-PCR of Bmp4 and Dkk1 expression in HEFs; assay type: cell-based, human; details: 10 μg/ml, six hours
Experimental: as §2, §1

[8] = test system: Bmp4 and Dkk1 expression in MEFs; test: sqRT-PCR of Bmp4 and Dkk1 expression in MEFs; assay type: cell-based, mouse; details: 10 μg/ml, six hours
Experimental: as §2, with “Inhibitors were applied once at the beginning of incubation with the exception of LiCl that was added 150 minutes before harvesting the cells for further analyses. Pre-treatment with phenyl-N-t-butylnitrone (PBN; 2 mM; Sigma) was performed for one hour. Incubations with juglone were performed for two hours, if applicable, after a pre-treatment with PBN, Noggin, anti-Dkk1 antibody, LiCl or Gsk3-Inhibitor IX for one hour.” left out
RNA isolation, semi-quantitative RT-PCRs and whole mount in situ hybridizations were performed according to standard protocols that are well known within the art. […] Quantifications were performed using NIH Image 1.62.

Wnt/β-catenin signaling = test: TOPflash luciferase reporter assay in CEFs; assay type: cell-based, chicken; details: Wnt3a-conditioned medium, 24 hours
Experimental: Plasmids with wild type (TOPflash) or mutated (FOPflash) LEF/TCF binding sites (5) upstream of a luciferase reporter gene were transiently transfected into CEFs using Lipofectamine (Invitrogen). Following transfection for 24 hours, the cells were exposed to Wnt3a-conditioned medium or to control medium (6) with or without thalidomide or recombinant human DKK1 (150 ng/ml, R&D Biosystems) for 24 hours prior to luciferase assay. Values were normalized for transfection efficiency by co-transfection with a pSV-β-galactosidase vector and for the number of living cells. Luciferase activity was measured using the Dual-Light System (Applied Biosystems).

β-catenin = test: Sub-cellular localization of β-catenin in HEFs; assay type: cell-based, human; details: in the presence of Wnt3a; about 70% with Wnt3a alone
Experimental: CEFs or HEFs attached on cover slips were incubated with Wnt3a-conditioned medium including thalidomide or solvent or with control medium for five hours. β-catenin was detected by using a mouse anti-β-catenin antibody (1:500, BD Transduction Laboratories), an anti-mouse Cy3-coupled secondary antibody (Dianova) and fluorescence microscopy. Afterwards, a DAPI staining was performed as a control. Quantification was done by counting the nuclei with a clear fluorescent signal in relation to the number of DAPI-stained nuclei.

Q: Which results are given for `O=C1CCC(N2C(=O)c3ccccc3C2=O)C(=O)N1` (racemic) [thalidomide, 2-(2,6-dioxo-3-piperidyl)isoindole-1,3-dione]?
A: embryos with limb truncations, thalidomide-treated control embryos (chicken embryos; control of the anti-Dkk1 antibody experiment (FIG. 7B)): 15%; embryos with microphthalmia, thalidomide-treated control embryos (chicken embryos; in vivo): 23%; embryos with limb truncations, thalidomide treatment (chicken embryos; survived to day seven (FIG. 7A)): 19%; expression level of Bmp2 in limb buds (sqRT-PCR) ([1]; HH stages 23/24 embryos): not significantly affected; expression of Bmp4, Bmp5 and Bmp7 in limb buds (sqRT-PCR) ([1]; HH stages 23/24 embryos): clearly up-regulated; Dkk1 expression in limb buds (sqRT-PCR) ([1]; HH stages 23/24 embryos, in comparison to controls): dramatically enhanced; limb buds with Bmp4 expression dramatically up-regulated (whole mount in situ hybridization) ([1]; HH stages 23/24 embryos, AER, ANZ and PNZ): 20 of 36; limb buds with Dkk1 expression clearly enhanced (whole mount in situ hybridization) ([1]; HH stages 23/24 embryos, AER, underlying mesenchyme and ANZ): 19 of 64; limb buds with enhanced Bmp expression and PCD ([1]; in vivo): 55%; limb buds with increased Dkk1 expression ([1]; in vivo): 30%; limb buds with enlarged ANZ (whole mount TUNEL staining) ([2]; HH stages 23/24 embryos): 22 of 40; individual limb buds with enhanced PCD (TUNEL) ([2]; chicken, in vivo): 53%; maximum of cell death in PLBCs ([3]; 38.7 μM (10 μg/ml), six to eight hours): about 6 -fold above control; EC50 ([3]; Gallus gallus, 6 h, treated for six hours, read-out: EC50 for induction of PCD in PLBCs): 5 µM; induction of PCD in CEFs compared to controls [4]: six-fold; potential to induce PCD in HEFs [5]: very similar to that in chicken embryonic cells; EC50 ([5]; Homo sapiens, Fibroblast, 6 h, treated for six hours, read-out: EC50 for induction of apoptosis (PCD) in HEFs): 8.9 µM; expression of Bmp4 and Dkk1 in PLBCs [6]: induced the expression; expression of Bmp4 and Dkk1 in HEFs [7]: induced the expression; expression of Bmp4 and Dkk1 in MEFs [8]: not in MEFs; effect on Wnt3a-induced TOPflash activity (Wnt/β-catenin signaling): clearly counteracted; HEFs positive for nuclear β-catenin (β-catenin): 10%
